Measured values from patent publication US11639350B2, “Heteroaryldihydropyrimidine derivatives and methods of treating hepatitis B infections” (Janssen Pharmaceutica NV, priority 2018, dated 2023).
pEC50: −log10 of the molar value. Where two headings read alike, the source gives them in different places.

How the values were obtained:
HBV = HBV inhibitory activity: HBV DNA in the culture medium of HepG2.2.15 cells by q-PCR; format: cell-based; details: HepG2.2.15 cells, 6 days of compound treatment, HBV DNA in culture medium by q-PCR, highest concentration 10 μM, read-out: EC50
Outline: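 HepG2.2.15 cells in 2% FBS medium, 40,000 per well, treated 6 days with compound (medium refreshed once), eight 3-fold dilutions from 10 μM top. HBV DNA extracted from culture medium and quantified by q-PCR; EC50 averaged over repeats. Cytotoxicity run in parallel at 5,000 cells per well, top 100 μM, giving CC50.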

[1] = Cytotoxicity determination in HepG2.2.15 cells (CCK-8); format: cell-based; details: human, 6 days of compound treatment, CCK-8, highest concentration 100 μM
Outline: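 HepG2.2.15 cells seeded at 5,000 cells/well in 2% FBS medium, incubated overnight at 37° C., then treated 6 days with compounds (8 points, 3-fold dilutions, top 100 μM), medium refreshed once midway. CCK-8 added for 2.5 h; A450 read against 630 nm reference; CC50 calculated, averaged over repeats.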

[2] = Hepatitis B virus, HepG2.2.15, 144 h

Compound	pEC50 (HBV; [2])	CC50 at 6 days [1] [nM]	pEC50 (HBV)
COC(=O)C1=C(C2CCN(S(=O)(=O)[C@H]3C[C@H](C(C)(C)O)C3)CC2)NC(c2nccs2)=NC1c1ccc(F)cc1Cl (single isomer, unassigned) [Compound 244B, (trans)-Methyl 4-(2-chloro-4-fluorophenyl)-6-(1-((3-(2-hydroxypropan-2-yl)cyclobutyl)sulfonyl)piperidin-4-yl)-2-(thiazol-2-yl)-1,4-dihydropyrimidine-5-carboxylate]	8.22	12300	–
COC(=O)C1=C(C2CCN(S(=O)(=O)[C@H]3C[C@@H](C(C)(C)O)C3)CC2)NC(c2nccs2)=NC1c1ccc(F)cc1Cl (single isomer, unassigned) [Compound 244D, (cis)-Methyl 4-(2-chloro-4-fluorophenyl)-6-(1-((3-(2-hydroxypropan-2-yl)cyclobutyl)sulfonyl)piperidin-4-yl)-2-(thiazol-2-yl)-1,4-dihydropyrimidine-5-carboxylate]	6.97	60000	–
COC[C@H](O)CN([C@H]1CC[C@H](C2=C(C(=O)OC)C(c3ccc(F)c(F)c3Cl)N=C(c3nccs3)N2)CC1)S(C)(=O)=O (single isomer, unassigned) [Compound 245B]	7.31	12300	–
COC[C@@H](O)CN([C@H]1CC[C@H](C2=C(C(=O)OC)C(c3ccc(F)c(F)c3Cl)N=C(c3nccs3)N2)CC1)S(C)(=O)=O (single isomer, unassigned) [Compound 245D]	7.82	12500	–
COC(=O)C1=C([C@H]2CC[C@H](NS(=O)(=O)C3CN(C)C3)CC2)NC(c2nccs2)=NC1c1ccc(F)c(F)c1Cl (single isomer, unassigned) [Compound 251B, (trans)-Methyl 4-(2-chloro-3,4-difluorophenyl)-6-(4-(1-methylazetidine-3-sulfonamido)cyclohexyl)-2-(thiazol-2-yl)-1,4-dihydropyrimidine-5-carboxylate]	6.99	8700	–
CNS(=O)(=O)[C@H]1CC[C@@H](C2=C(C(=O)OC)C(c3cccc(F)c3Cl)N=C(c3nccs3)N2)CC1 (single isomer, unassigned) [Compound 259C, (cis)-methyl 4-(2-chloro-3-fluorophenyl)-6-(4-(N-methylsulfamoyl)cyclohexyl)-2-(thiazol-2-yl)-1,4-dihydropyrimidine-5-carboxylate]	7.44	12700	–
CNS(=O)(=O)[C@H]1CC[C@H](C2=C(C(=O)OC)C(c3cccc(F)c3Cl)N=C(c3nccs3)N2)CC1 (single isomer, unassigned) [Compound 259E, (trans)-methyl 4-(2-chloro-3-fluorophenyl)-6-(4-(N-methylsulfamoyl)cyclohexyl)-2-(thiazol-2-yl)-1,4-dihydropyrimidine-5-carboxylate]	7.55	22700	–
CCOC(=O)C1=C([C@@H]2CC[C@H](C(=O)O)OC2)NC(c2nccs2)=NC1c1ccc(F)cc1Cl (single isomer, unassigned) [Compound 265E, (cis)-5-(−6-(2-Chloro-4-fluorophenyl)-5-(ethoxycarbonyl)-2-(thiazol-2-yl)-3,6-dihydropyrimidin-4-yl)tetrahydro-2H-pyran-2-carboxylic Acid]	–	92300	6.01
COCCNS(=O)(=O)N1CCC(C2=C(C(=O)OC)C(c3ccc(F)cc3Cl)N=C(c3nccs3)N2)CC1 (single isomer, unassigned) [Compound 268B, Methyl 4-(2-chloro-4-fluorophenyl)-6-(1-(N-(2-methoxyethyl)-sulfamoyl)piperidin-4-yl)-2-(thiazol-2-yl)-1,4-dihydropyrimidine-5-carboxylate]	7.23	30700	–
COC(=O)C1=C([C@H]2CC[C@H](C(=O)OC)CC2)NC(c2nccs2)=NC1c1ccc(F)c(F)c1Cl (single isomer, unassigned) [Compound 288M, (trans)-Methyl 4-(2-chloro-3,4-difluorophenyl)-6-(4-(methoxycarbonyl)cyclohexyl)-2-(thiazol-2-yl)-1,4-dihydropyrimidine-5-carboxylate]	7.20	20000	–
COC(=O)C1=C([C@H]2CC[C@H](S(=O)(=O)NCCO)CC2)NC(c2nccs2)=NC1c1ccc(F)c(F)c1Cl (single isomer, unassigned) [Compound 291C, (trans)-Methyl 4-(2-chloro-3,4-difluorophenyl)-6-(4-(N-(2-hydroxyethyl)sulfamoyl)cyclohexyl)-2-(thiazol-2-yl)-1,4-dihydropyrimidine-5-carboxylate]	7.80	12000	–
CCOC(=O)C1=C([C@H]2CCC[C@H](C(=O)O)CC2)NC(c2nccs2)=NC1c1ccc(F)c(F)c1Cl (single isomer, unassigned) [Compound 302A, (trans)-4-(−6-(2-Chloro-3,4-difluorophenyl)-5-(ethoxycarbonyl)-2-(thiazol-2-yl)-3,6-dihydropyrimidin-4-yl)cycloheptanecarboxylic Acid]	7.62	15200	–
COC(=O)C1=C(C2CCN(S(=O)(=O)CC(O)CO)CC2)NC(c2nccs2)=NC1c1ccc(F)cc1Cl (single isomer, unassigned) [Compound 305A, Methyl 4-(2-chloro-4-fluorophenyl)-6-(1-((2,3-dihydroxypropyl)sulfonyl)piperidin-4-yl)-2-(thiazol-2-yl)-1,4-dihydropyrimidine-5-carboxylate]	7.33	36200	–
COC(=O)C1=C(C2CCN(S(=O)(=O)C3CCC(C(=O)OC(C)(C)C)CC3)CC2)NC(c2nccs2)=NC1c1ccc(F)cc1Cl (single isomer, unassigned) [Compound 312X, Methyl 6-(1-((4-(tert-butoxycarbonyl)cyclohexyl)sulfonyl)-piperidin-4-yl)-4-(2-chloro-4-fluorophenyl)-2-(thiazol-2-yl)-1,4-dihydropyrimidine-5-carboxylate]	7.01	> 100000	–
COC(=O)C1=C([C@H]2CC[C@H](N(CCO)S(C)(=O)=O)CC2)NC(c2nccs2)=NC1c1ccc(F)c(F)c1Cl (single isomer, unassigned) [Compound 315D, (trans)-Methyl 4-(2-chloro-3,4-difluorophenyl)-6-(4-(N-(2-hydroxyethyl)methylsulfonamido)cyclohexyl)-2-(thiazol-2-yl)-1,4-dihydropyrimidine-5-carboxylate]	7.60	12600	–
COC(=O)C1=C(C2CCN(S(=O)(=O)C3CC(O)C3)CC2)NC(c2nccs2)=NC1c1ccc(F)cc1Cl (single isomer, unassigned) [Compound 335A, Methyl 4-(2-chloro-4-fluorophenyl)-6-(1-((3-hydroxycyclobutyl)sulfonyl)piperidin-4-yl)-2-(thiazol-2-yl)-1,4-dihydropyrimidine-5-carboxylate]	7.70	12200	–
CCOC(=O)C1=C(C2CCN(S(=O)(=O)[C@H]3C[C@H](C(=O)O)C3)CC2)NC(c2nccs2)=NC1c1ccc(F)c(F)c1C (single isomer, unassigned) [Compound 343A, (trans)-3-((4-(6-(3,4-difluoro-2-methylphenyl)-5-(ethoxycarbonyl)-2-(thiazol-2-yl)-3,6-dihydropyrimidin-4-yl)piperidin-1-yl)sulfonyl)cyclobutanecarboxylic Acid]	–	40800	7.05
CCOC(=O)C1=C([C@H]2CC[C@H](C(=O)O)CC2)NC(c2nccs2)=NC1c1ccc(F)c(F)c1Cl (single isomer, unassigned) [Compound 345A, (trans)-(R*)-4-(6-(2-Chloro-3,4-difluorophenyl)-5-(ethoxycarbonyl)-2-(thiazol-2-yl)-3,6-dihydropyrimidin-4-yl)cyclohexanecarboxylic Acid]	7.36	34100	–
CCOC(=O)C1=C(C2CCN(S(=O)(=O)CCO)CC2)NC(c2nccs2)=NC1c1ccc(F)c(F)c1Cl (single isomer, unassigned) [Compound 356B, Ethyl 4-(2-chloro-3,4-difluorophenyl)-6-(1-((2-hydroxyethyl)sulfonyl)piperidin-4-yl)-2-(thiazol-2-yl)-1,4-dihydropyrimidine-5-carboxylate]	8.22	12200	–
COCCNS(=O)(=O)[C@H]1CC[C@@H](C2=C(C(=O)OC)C(c3ccc(F)c(F)c3Cl)N=C(c3nccs3)N2)CC1 (single isomer, unassigned) [Compound 359B, (cis)-Methyl 4-(2-chloro-3,4-difluorophenyl)-6-(4-(N-(2-methoxyethyl)sulfamoyl)cyclohexyl)-2-(thiazol-2-yl)-1,4-dihydropyrimidine-5-carboxylate]	7.26	10500	–
COCCNS(=O)(=O)[C@H]1CC[C@H](C2=C(C(=O)OC)C(c3ccc(F)c(F)c3Cl)N=C(c3nccs3)N2)CC1 (single isomer, unassigned) [Compound 359D, (trans)-methyl 4-(2-chloro-3,4-difluorophenyl)-6-(4-(N-(2-methoxyethyl)sulfamoyl)cyclohexyl)-2-(thiazol-2-yl)-1,4-dihydropyrimidine-5-carboxylate]	8.30	12000	–
